Reference: patent US12377067B2, “Methods of treating PAH with combinations of ralinepag and other agents” (Arena Pharmaceuticals, Inc., priority 2016, dated 2025)
Where two headings read alike, the source gives them in different places.

Columns and labels:
[1] = test system: human PASMCs from PAH patients; experiment: Cell proliferation assay (MTS), serum-induced growth; format: cell-based
Experimental: Primary cell lines of distal PASMCs from PAH patients were derived from explanted lungs as previously described (Falcetti et al., 2010; Bubb et al., 2014). These cells have an abnormal proliferative capacity when grown in culture (Zhang et al., 2007; Falcetti et al., 2010). Frozen cells were revived and grown in human smooth muscle basal medium-2 (SMBM; Lonza, Slough, UK) supplemented with 9% fetal bovine serum (FBS) at 37° C. in a humidified atmosphere of 5% CO2. After reaching confluence, cells were washed with phosphate-buffered saline (PBS) and treated with trypsin-EDTA for further passage. Only cells between passages 3 and 10 were used for experiments.
Comparative concentration-dependent effects of IP receptor agonists on cell proliferation were assessed on human PASMCs derived from PAH patients. Cells were seeded onto 96-well plates at a density of 1×10^4 cells/ml and grown at 37° C. in a humidified CO2 incubator in human smooth muscle basal medium-2 (SMBM; Lonza) containing 9% FBS and penicillin-streptomycin (Pen/Strep; 50 units/ml). After 24 hours, cells were growth arrested by incubating for 48 hours in fresh media containing no added serum. Media was then subsequently removed, replaced with human SMBM containing 9% serum with or without 0.1% DMSO in the absence and presence of the IP receptor agonist (either ralinepag, iloprost, treprostinil or MRE-269) and cells treated with the IP receptor agonist for 4 days over the concentration range ([…]). Responses were directly compared in cells containing the IP receptor antagonist, RO-1138452 (1 μM), which was added to cells 30-60 minutes prior to the addition of the IP agonist and remained throughout the experiment. Cells incubated with no added serum over the same time period (4 days) acted as the time control.
Cell proliferation was obtained using an MTS proliferation kit (Promega), a colorimetric method for determining the number of viable cells which is based on the cleavage of the tetrazolium salt MTS to formazan by cellular mitochondrial dehydrogenases. An increase in cell number leads to a proportional increase in the amount of formazan dye formed which is quantified by measuring the absorbance of the dye solution at 490 nm. In each case background absorbance was corrected by subtracting the average absorbance from the “no cell” control wells from all other absorbance values.
Cell proliferation was then normalized to the growth response induced by FBS alone, which was taken as the FBS response minus the time control (=100% growth at 4 days). Growth responses induced in presence of solvent±drugs is shown as % change in cell proliferation relative to the FBS response alone in all figures.
All data are presented as mean±standard error of mean (S.E.M) of at least 5 observations. Agonist log-concentration curves were constructed and fitted using the non-linear fitting routine in GraphPad Prism 4 or 6 (San Diego, Calif., USA). The concentration of agonist causing 50% of the maximal response (Emax) was expressed as the negative log (pEC50) and the mean EC50 calculated. P values <0.05 are considered statistically significant.

Half-life in vivo = details: irrespective of the dose
[2] = 22-week randomized, double-blind, placebo-controlled clinical trial; format: in vivo, patients
Experimental: A 22-week randomized, double-blind, placebo-controlled study with a dose titration period of up to 9 weeks was conducted. Sixty-one patients were randomized 2:1 ralinepag to placebo. Right Heart Catheterization (RHC) measurements were obtained prior to study Day 1 of the dose titration period and at Week 22. The following values were obtained and recorded: pulmonary artery pressure (PAP) (systolic, diastolic, and mean), heart rate (HR), right atrial pressure (RAP), pulmonary capillary wedge pressure (PCWP) right ventricular pressure (RVP) and cardiac output (CO), pulmonary vascular resistance (PVR), arterial and mixed venous oxygen saturation (FiO2) (if applicable). Systemic vascular resistance (SVR) was estimated from blood pressure measurements. All patients were receiving background PAH treatment with an endothelin receptor antagonist, phosphodiesterase type-5-inhibitor, or soluble guanylate cyclase activator, alone or in combination.
The primary efficacy endpoint for the study was change from baseline in PVR after 22 weeks of treatment. Additional analyses included change from baseline in 6 MWD after 22 weeks of treatment, hemodynamics, and safety and tolerability. Ralinepag was administered as a capsule in 0.01, 0.02, 0.03, 0.04, and 0.10 mg dose strengths.
The starting dose of ralinepag was 0.01 mg twice daily. The dose of ralinepag was titrated according to patient tolerability. If the initial dose was tolerated (0.01 mg twice daily), then the dose was increased once a week in the following fashion: 0.02 mg twice daily, 0.03 mg twice daily, 0.04 mg twice daily, 0.06 mg twice daily, 0.08 mg, 0.1 mg twice daily, 0.2 mg twice daily and 0.3 mg twice daily. The dose was optionally escalated to a possible maximum total daily dose of 0.6 mg (0.3 mg twice daily), pending tolerability.

[3] = test system: human PASMCs from PAH patients; experiment: Cell proliferation assay (MTS), serum-induced growth; format: cell-based; details: for Emax: read-out: Emax (% Inhibition); for times more potent than ralinepag alone: individual fits (Table 1)
[4] = Homo sapiens, PASMC, 96 h, ralinepag alone or + 100 nM drug, from individual fits, 9% FBS + 0.1% DMSO, 4 days
[5] = in the presence of 100 nM riociguat

`O=C(O)COC[C@H]1CC[C@H](COC(=O)N(c2ccccc2)c2ccc(Cl)cc2)CC1` [ralinepag, 2-(((1r,4r)-4-(((4-chlorophenyl)(phenyl)carbamoyloxy)methyl)cyclohexyl)methoxy)acetic acid] gave an inhibition at 0.001 µM ([1]; Homo sapiens, PASMC, 1 nM ralinepag alone) of 14%, an inhibition at 0.01 µM ([1]; Homo sapiens, PASMC, 10 nM ralinepag in the presence of 100 nM bosentan) of 21% and an inhibition at 10 µM ([1]; Homo sapiens, PASMC, 10 μM ralinepag alone (highest dose tested)) of 50%. It also gave an inhibition at 0.1 µM ([1]; Homo sapiens, PASMC, 96 h, drug alone at 100 nM, compared to FBS and DMSO, 4 days) of 28%, an EC50 [1, 4] of 25 nM and an EC50 ([1]; Homo sapiens, PASMC, ralinepag in the presence of 100 nM riociguat, individual fits) of 10 nM. The “antiproliferative response in the presence of an IP receptor antagonist” value ([1]; IP receptor antagonist RO-1138452 (1 μM)) was “completely inhibited”, the “maximal effect compared with treprostinil” value ([1]; cell proliferation assay) was “weaker maximal effects” and the “fold lower dose of ralinepag inhibiting cell proliferation” value ([1]; combined with 100 nM macitentan vs ralinepag alone) was 10 fold. For the same compound, the “IP receptor dependence of the effect” value ([1]; cyclic AMP and cell proliferation assays in human PASMCs from PAH patients) was “selective IP receptor agonists”, the “dose of ralinepag at which significant inhibition of cell growth occurred” value [1, 5] was 10 pM and the potency enhancement ([1]; in the presence of 100 nM sildenafil, mean fits (Table 2)) was 8 fold. For the same compound, the “antiproliferative effect compared to ralinepag alone” value ([1]; in the presence of 100 nM treprostinil, entire concentration range, mean data) was “more effective in the presence of treprostinil”, the “fold more antiproliferation effects than MRE-269” value ([1]; ralinepag vs MRE-269) was 10 fold and the plasma half-life (Half-life in vivo) was “relatively long plasma half-life”. The “6-minute walk distance (6MWD)” value ([2]; after 22 weeks) was “numerical improvement”, the “change from baseline in pulmonary vascular resistance (PVR)” value ([2]; after 22 weeks, compared to placebo, on background PAH treatment) was “statistically significant change from baseline” and the adverse events ([2]; human, in vivo) was “consistent with other prostacyclin treatments”. It also gave an inhibition at 0.001 µM ([3]; Homo sapiens, PASMC, 1 nM ralinepag in the presence of 100 nM sildenafil) of 27%, an inhibition at 0.01 µM ([3]; Homo sapiens, PASMC, 10 nM ralinepag combined with 100 nM riociguat) of 45% and an inhibition at 10 µM ([3]; Homo sapiens, PASMC, 10 μM ralinepag in the presence of 100 nM sildenafil) of 56%. For the same compound, the inhibition at 10 µM ([3]; Homo sapiens, PASMC, 10 μM ralinepag in the presence of 100 nM treprostinil) was 69%, the EC50 ([3]; Homo sapiens, PASMC, 96 h, log EC50 printed with negative sign, ralinepag alone or + 100 nM drug, from individual fits, 9% FBS + 0.1% DMSO, 4 days, read-out: Log EC50 (n = 5) (converted)) was 25.1 nM and the EC50 ([3]; Homo sapiens, PASMC, 96 h, log EC50 printed with negative sign, ralinepag alone or + 100 nM drug, from mean fits, 9% FBS + 0.1% DMSO, 4 days, read-out: Log EC50 (n = 5) (converted)) was 44.7 nM. The Emax [3, 4] was 58.2 ± 4.1%, the EC50 ([3]; Homo sapiens, PASMC, 96 h, ralinepag alone or + 100 nM drug, from mean fits, 9% FBS + 0.1% DMSO, 4 days, read-out: EC50) was 44 nM and the Emax ([3]; Homo sapiens, PASMC, 96 h, ralinepag alone or + 100 nM drug, from mean fits, 9% FBS + 0.1% DMSO, 4 days) was 59.6 ± 17.3%. The EC50 ([3]; Homo sapiens, PASMC, ralinepag in the presence of 100 nM sildenafil, individual fits, read-out: EC50) was 5 nM, the “dose of ralinepag at which cell proliferation was inhibited” value ([3]; combined with 100 nM macitentan) was 0.1 nM and the “dose of ralinepag at which significant inhibition of cell growth occurred” value ([3]; combined with 100 nM treprostinil) was 0.1 nM. For the same compound, the “fold lower dose of ralinepag giving significant inhibition of cell growth” value ([3]; combined with 100 nM treprostinil vs ralinepag alone) was 10 fold, the “antiproliferative effect compared to ralinepag alone” value ([3]; in the presence of 100 nM bosentan, mean data) was “not more effective” and the “antiproliferative effect compared to ralinepag alone” value ([3]; in the presence of 100 nM macitentan, mean data) was “not significantly more effective”. The “fold lower dose of ralinepag giving significant inhibition of cell growth” value ([3]; in the presence of 100 nM riociguat vs ralinepag alone) was 100 fold, the “antiproliferative effect compared to ralinepag alone” value ([3]; in the presence of 100 nM riociguat, 0.01-10,000 nM ralinepag, mean data) was “significantly more effective at 10 nM and above” and the “times more potent than ralinepag alone” value [3, 5] was about 2.5 times. For the same compound, the potency enhancement ([3]; in the presence of 100 nM riociguat, mean fits (Table 2)) was 8 fold, the “antiproliferative effect compared to ralinepag alone” value ([3]; in the presence of 100 nM sildenafil, 0.01-10,000 nM ralinepag) was “significantly (P<0.001, two-way ANOVA) more effective” and the “times more potent than ralinepag alone” value ([3]; in the presence of 100 nM sildenafil) was about 5 times. For the same compound, the “maximum response compared to ralinepag alone” value ([3]; in the presence of riociguat or treprostinil (100 nM)) was “significantly greater maximum response” and the “concentration at which ralinepag started to significantly inhibit cell proliferation” value ([3]; ralinepag alone, not lowered by 100 nM bosentan) was “InM”.
